Measured values from article PMC8003314, “Design and Synthesis of Ranitidine Analogs as Multi-Target Directed Ligands for the Treatment of Alzheimer’s Disease” (International Journal of Molecular Sciences, 2021).

Key:
Aβ40 = biological target: T1, Aβ40 (Homo sapiens, UniProt P05067); test: ThT fluorescence assay of Aβ monomer aggregation; format: biochemical; details: 40 μM Aβ40 monomer, mean ± SEM, n = 3–5, N.E. = not significantly different from control samples; for Lag Time Extension (Fold Increase) / Plateau Reduction (% Inhibition): 100 µM compound; for Lag Time Extension (Fold Increase): T2/T1 relative to control; for inhibition at 100 µM: pH 8, 100 µM compound, read-out: Plateau Reduction (% Inhibition); for inhibition at 100 µM / Plateau Reduction (% Inhibition): 40 mM Tris-HCl pH 8.0, 25 °C
T1 construct: purchased AnaSpec; host or cells: synthetic peptide
T1 sequence (P05067 672-711 limits assumed): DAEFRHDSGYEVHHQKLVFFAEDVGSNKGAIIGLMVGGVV
Text: Synthetic Aβ40 was used in this study because it is the predominant isoform found in amyloid plaques isolated from AD brain [12]. Thioflavin T (ThT), a fluorescent compound that binds specifically to amyloid β-sheet structures to yield a shifted, enhanced florescence, was used to monitor the appearance of aggregates. […] The inhibitory effect of compounds on Aβ aggregation was evidenced as a reduction in the equilibrium plateau and/or an increase in the lag time. The plateau reduction (Figure 2A), which indicates inhibition that reduces the extent of Aβ aggregation, was defined as the percentage decrease of the plateau ThT fluorescence in the presence of inhibitor, P2, compared to the plateau ThT fluorescence in the absence of inhibitor, P1.
Lyophilized Aβ peptide was reconstituted in 50 mM NaOH at a concentration of 2 mg/mL and purified via size-exclusion chromatography (SEC) on a Superdex 75 HR 10/300 column (Cytiva, Marlborough, MA) using a running buffer of 40 mM Tris-HCl (pH 8.0). Bovine serum albumin (BSA) (2 mg/mL) was employed as a pretreatment to reduce nonspecific Aβ interaction with the dextran matrix of the column. […] The concentrations of eluted Aβ monomer fractions were determined with a calculated extinction coefficient of 1450 M^−1 cm^−1 at 276 nm. Purified Aβ monomer samples were used fresh or stored at 4 ℃ for up to 4 days.
All compounds were dissolved in DMSO at 5 mM and stored at −20 °C. […] DMSO (2% v/v) was added to control reactions run in parallel.
SEC-purified Aβ monomer was diluted to 40 μM in 40 mM Tris-HCl (pH 8.0) and agitated (vortex, 800 rpm, 25 °C) without (control) or with 100 µM ranitidine analogs. Periodically, a 20-μL aliquot was removed and combined with 140 μL of 10 μM ThT. Fluorescence (excitation = 450 nm, emission = 470–500 nm) was evaluated using a Perkin-Elmer LS-45 luminescence spectrometer (Waltham, MA, USA). Fluorescence values were calculated as the integrated area under the emission curve with baseline (ThT alone) subtraction and plotted vs. aggregation time. Each compound was evaluated using at least three independent experiments.
Figure 2 Assessment of the inhibition of Aβ monomer aggregation. Monomer aggregation assays were conducted in the absence (solid line, control) and presence (dotted line, experimental) of the ranitidine analogs, and aggregate formation was monitored as an increase in the ThT fluorescence. (A) Inhibition that decreases the quantity of aggregates formed at equilibrium is reported as the plateau reduction, the percentage decrease of the plateau ThT fluorescence in the presence of inhibitor, P2, compared to the plateau for the control, P1. (B) Inhibition that extends the time to aggregate formation is reported as the lag time extension. It is evidenced as an increase in the experimental lag time, T2, relative to the lag time for the control, T1, and evaluated as a fold increase relative to the control, T2/T1.

electric eel AChE = biological target: T2, electric eel AChE (Electrophorus electricus, UniProt O42275); test: AChE inhibition assay (modified Ellman method); format: biochemical; details: 0.1 M sodium phosphate pH 8.0, 37 °C, 200 µM acetylthiocholine
T2 construct: purchased Sigma (Sigma-Aldrich, St. Louis, MO, USA)
T2 sequence (O42275 24-633): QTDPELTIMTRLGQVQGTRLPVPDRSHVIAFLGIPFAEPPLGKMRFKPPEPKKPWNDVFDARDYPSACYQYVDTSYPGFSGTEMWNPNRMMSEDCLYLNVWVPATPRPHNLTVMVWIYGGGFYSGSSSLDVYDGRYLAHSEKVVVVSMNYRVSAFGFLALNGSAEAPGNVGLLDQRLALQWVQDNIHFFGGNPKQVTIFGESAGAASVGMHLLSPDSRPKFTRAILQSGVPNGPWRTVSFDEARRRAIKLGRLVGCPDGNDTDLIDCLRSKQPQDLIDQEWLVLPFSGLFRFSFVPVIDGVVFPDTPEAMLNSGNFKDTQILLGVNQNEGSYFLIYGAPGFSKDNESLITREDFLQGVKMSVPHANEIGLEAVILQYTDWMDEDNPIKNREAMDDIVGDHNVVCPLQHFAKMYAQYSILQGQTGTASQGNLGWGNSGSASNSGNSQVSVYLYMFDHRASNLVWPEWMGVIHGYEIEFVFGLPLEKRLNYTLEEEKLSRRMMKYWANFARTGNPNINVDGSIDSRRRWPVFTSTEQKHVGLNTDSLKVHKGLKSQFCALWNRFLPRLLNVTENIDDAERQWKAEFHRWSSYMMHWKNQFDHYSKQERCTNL
Experimental: Aβ40 was purchased from AnaSpec (AnaSpec, Fremont, CA, USA) and stored in lyophilized form at −20 °C. Thioflavin T (ThT) and electric eel AChE were obtained from Sigma (Sigma-Aldrich, St. Louis, MO, USA). Bovine serum albumin (BSA) and dimethyl sulfoxide (DMSO) were purchased from EMD Biosciences (EMD Biosciences, San Diego, CA, USA). Tris-HCl (pH 8.0) was prepared using Tris base, purchased from Promega (Promega, Madison, WI, USA) and Tris hydrochloride, purchased from EMD (EMD, Burlington, MA, USA).
The AChE inhibition assay was modified based on the method of Ellman et al. in a 24-well plate format at 37 °C. Assays were performed in 0.1 M sodium phosphate (pH 8.0), containing 200 µM acetylthiocholine, 100 µM dithiobisnitrobenzoic acid, and 0.005 units of AChE in a final volume of 3000 µL. The reaction was initiated by the addition of acetylthiocholine, and the formation of a product was monitored by measuring absorbance at 412 nm. The IC50 values were determined by nonlinear regression analysis of the concentration–response curves generated. Each compound was evaluated using at least three independent experiments.

AChE = test system: AChE; set-up: method as in PMID 27769620; details: previous study; cited from earlier work

Compound	Lag Time Extension (Fold Increase) (Aβ40)	inhibition at 100 µM (Aβ40)	IC50 (electric eel AChE)	IC50 (AChE)	Plateau Reduction (% Inhibition) (Aβ40)
O=C1c2cccc3cc([N+](=O)[O-])cc(c23)C(=O)N1CCc1ccco1 [Compound 11, 2-(2-(furan-2-yl)ethyl)-5-nitro-1H-benzo[de]isoquinoline-1,3(2H)-dione]	1.76 ± 0.61 fold	60.3%			
CN(C)Cc1ccc(CCN2C(=O)c3cccc4cc([N+](=O)[O-])cc(c34)C2=O)o1 [Compound 12, 2-(2-(5-((Dimethylamino)methyl)furan-2-yl)ethyl)-5-nitro-1H-benzo[de]isoquino line-1,3(2H)-dione]	2.25 ± 0.25 fold	65.6%	0.36 µM		
CN(C)Cc1ccc(CSCCN2C(=O)c3cccc4cc([N+](=O)[O-])cc(c34)C2=O)o1 [Compound 6]	N.E.	71.8%		150 nM	
CN(C)Cc1ccc(CSCCN2C(=O)c3ccc([N+](=O)[O-])cc3C2=O)o1 [Compound 5]	2.0 ± 0.6 fold	39.1%			
CN(C)Cc1ccc(CSCCN2C(=O)c3cccc4c(Cl)ccc(c34)C2=O)o1 [Compound 8, 6-Chloro-2-(2-(((5-((dimethylamino)methyl)furan-2-yl)methyl)thio)ethyl)-1H-benzo [de]isoquinoline-1,3(2H)-dione]	N.E.	65.8%	1.23 µM		
CN(C)Cc1ccc(CSCCN2C(=O)c3ccccc3C2=O)o1 [Compound 2]	lost and N.E.				N.E.
C[N+](C)([O-])Cc1ccc(CS(=O)(=O)CCN2C(=O)c3cccc4cc([N+](=O)[O-])cc(c34)C2=O)o1 [Compound 15, N,N-Dimethyl-1-(5-(((2-(5-nitro-1,3-dioxo-1H-benzo[de]isoquinolin-2(3H)-yl)ethyl)sulfonyl)methyl)furan-2-yl)methanamine oxide]	N.E.	20.4%			
CN(C)Cc1nc(CSCCN2C(=O)c3cccc4cccc(c34)C2=O)cs1 [Compound 9, 2-(2-((2-((Dimethylamino)methyl)thiazol-4-yl)methylthio)ethyl)-1H-benzo[de]iso quinoline-1,3(2H)-dione]	N.E.	61.4%	2.02 µM		54.2% ± 5.1%
CN(C)Cc1ccc(C[S+]([O-])CCN2C(=O)c3cccc4cc([N+](=O)[O-])cc(c34)C2=O)o1 (centres unmarked) [Compound 13, 2-(2-(((5-((Dimethylamino)methyl)furan-2-yl)methyl)sulfinyl)ethyl)-5-nitro-1H-benzo[de]isoquinoline-1,3(2H)-dione]	N.E.	26.8%			
2-(2-(Methylthio)ethyl)-5-nitro-1H-benzo[de]isoquinoline-1,3(2H)-dione [Compound 7]	N.E.				abrogated and N.E.
CN(C)Cc1nc(CSCCN2C(=O)c3cccc4cc([N+](=O)[O-])cc(c34)C2=O)cs1 [Compound 10, 2-(2-(((2-((Dimethylamino)methyl)thiazol-4-yl)methyl)thio)ethyl)-5-nitro-1H-benzo[de]isoquinoline-1,3(2H)-dione]	N.E.	54.2%	0.52 µM		61.4% ± 19.7%
CN(C)Cc1ccc(C[S+]([O-])CCN2C(=O)c3cccc4cccc(c34)C2=O)o1 (centres unmarked) [Compound 14, 2-(2-(((5-((Dimethylamino)methyl)furan-2-yl)methyl)sulfinyl)ethyl)-1H-benzo[de] isoquinoline-1,3(2H)-dione]	N.E.	20.1%			
CC1CC(=O)N(CCSCc2ccc(CN(C)C)o2)C1=O (centres unmarked) [Compound 1]	2.8 ± 0.6 fold				N.E.
CN(C)Cc1ccc(CSCCN2C(=O)c3cccc4cccc(c34)C2=O)o1 [Compound 3]	lost and N.E.	60.9%			
